Test results from PMC13489962, “Small-molecule modulation of β-arrestins” (Nature, 2026).

Target: T1, βARR1 E134A (Rattus norvegicus, UniProt P29066, E134A)
T1 construct: βARR1 or βARR2 construct, with their C terminus truncated (at amino acid 393 or 394, respectively); GST (pGEX4T1) (N, cleaved yes); made in house; host or cells: E. coli BL21 (DE3) pLysS
Assay: ITC binding to βARR1 mutant E134A
Conditions: 25 °C
Protocol: The expression and purification of β-arrestins have been described previously[44],[62]–[64]. In brief, E. coli BL21 (DE3) pLysS cells (New England Biolabs: C2527I) carrying pGEX4T1-Rattus norvegicus βARR1 or βARR2 construct, with their C terminus truncated (at amino acid 393 or 394, respectively), were cultured in Terrific Broth (Teknova) medium at 37 °C. After OD600 reached 0.6–0.8, the cells were induced with 0.1 mM isopropyl-β-D-thiogalactopyranoside (IPTG) at 18 °C overnight. Bacteria were collected by centrifugation (4,000 rpm), and cell pellets were resuspended in lysis buffer (20 mM HEPES, pH 8, 150 mM NaCl, 10% glycerol, 1 mM EDTA, 0.2 mM dithiothreitol (DTT), 1 mM phenylmethylsulfonyl fluoride, and 1 mM benzamidine) at 4 °C for 1 h. […] Eluted fractions were analysed by SDS–PAGE, pooled, concentrated using 30 kDa MWCO Amicon Ultra-15 Centrifugal Filter devices, flash-frozen in liquid nitrogen, and stored in aliquots at −80 °C. […] Protein concentrations for each protein were determined by ultraviolet absorption at 280 nm and extinction coefficients estimated using the ExPASy ProtParam tool[67].
ITC measurements were performed on a MicroCal iTC200 system at 25 °C. […] Protein concentrations were determined by spectrophotometry at 280 nm, using extinction coefficients calculated from each protein sequence via the ProtParam program. […]

T1 sequence (P29066 1-393 E134A): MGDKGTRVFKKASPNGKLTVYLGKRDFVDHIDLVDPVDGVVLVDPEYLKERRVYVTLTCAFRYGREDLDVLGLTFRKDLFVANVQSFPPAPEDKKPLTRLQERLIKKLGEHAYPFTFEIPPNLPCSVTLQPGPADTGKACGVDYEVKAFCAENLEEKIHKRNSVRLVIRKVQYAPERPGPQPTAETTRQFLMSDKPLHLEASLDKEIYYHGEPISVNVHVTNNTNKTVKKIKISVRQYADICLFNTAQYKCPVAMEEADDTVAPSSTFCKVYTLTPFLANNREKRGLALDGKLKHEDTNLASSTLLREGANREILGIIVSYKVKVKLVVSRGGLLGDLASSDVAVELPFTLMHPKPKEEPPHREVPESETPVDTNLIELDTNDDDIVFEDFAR

In the case of C=C1C(=O)[C@]23[C@H](O)[C@H]1CC[C@H]2[C@@]12CO[C@]3(O)[C@@H](O)[C@@H]1C(C)(C)CC[C@@H]2O [Cmpd-5, (1S,4aR,5S,6S,6aR,9S,11aS,11bS,14R)-1,5,6,14-tetrahydroxy−4,4-dimethyl-8-methylenedecahydro-1H-6,11b-(epoxymethano)-6a,9-methanocyclohepta[a]naphthalen-7(8H)-one], the Kd is reported as 2.2 ± 0.5 µM and the “ΔH, βARR1 E134A” value is reported as -5.02 kJ/mol.
